Results: patent US20240415819A1, “MACROCYCLIC COMPOUNDS AS PROTEASOME SUBUNIT BETA TYPE-5 INHIBITORS” (Lead Discovery Center GmbH, priority 2021, published 2024)

Key:
[1] = system: RPMI 8226 (B lymphocyte cell line, multiple myeloma); assay: 48 hr CTG viability assay, RPMI 8226; format: cell-based; conditions: Homo sapiens, RPMI-8226; 48 hr CTG; read-out: RPMI-8226 IC50
Procedure, shortened: (§1)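 Growth inhibition by compound over 48 h; IC50 (nM) derived from duplicate CellTiter-Glo luminescence readings across 0.0015–10 uM.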

[2] = system: Hs 746T (human gastric carcinoma cell line); assay: 48 hr CTG viability assay, Hs 746T; format: cell-based; conditions: Hs746T, 48 hr CTG, read-out: Hs 746T IC50
Procedure, shortened: as §1

[3] = system: MM1 S (B lymphoblast cell line); assay: 48 hr CTG viability assay, MM1S; format: cell-based; conditions: Homo sapiens, 48 hr CTG, read-out: MM1S IC50
Procedure, shortened: as §1

[4] = target: T1, β5 subunit of the human immunoproteasome (IPS) (Homo sapiens, UniProt P28062); assay: β5 inhibition assay, human immunoproteasome (Suc-LLVY-AMC); format: biochemical; conditions: IC50 class, Suc-LLVY-AMC substrate
T1 construct: purchased Boston Biochem E-370
Procedure, shortened: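 β5 activity is read as liberated AMC fluorescence (355/460 nm) after 4 h dark reaction at RT with 22.6 μM Suc-LLVY-AMC, stopped by 1 μM bortezomib. Beforehand, 1 nM human IPS and compound sat 10 min at RT in HEPES pH 7.5 buffer containing NaCl, 0.02% SDS and DTT.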

[5] = system: A549 (human lung carcinoma cell line); assay: Glo assay of A549 cells (Table 3; ProteasomeGlo plating scheme); format: cell-based; conditions: Homo sapiens; A549 cells; read-out: PGLo A549
Procedure, shortened: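 Cells plated in 384 wells; compound, DMSO, staurosporine transferred by ECHO; 105 min, 37° C., 5% CO2; Proteasome-Glo (Suc-LLVY-Glo) reagent added; dark 10-15 min; luminescence; IC50 nM.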

[6] = target: T2, β5 subunit of the human constitutive proteasome (CPS) (Homo sapiens, UniProt P28074); assay: β5 inhibition assay, human constitutive proteasome (Suc-LLVY-AMC); format: biochemical; conditions: IC50 class, Suc-LLVY-AMC substrate
T2 construct: purchased Boston Biochem E-360
Method: The enzymatic activity of the β5 subunit of the human constitutive proteasome (CPS) is analyzed. In another assay, which differs from the assay of the human constitutive proteasome only in using the human immunoproteasome (IPS) the enzymatic activity of the β5 subunit of the human immunoproteasome (IPS) is analyzed. […] Inhibition is indicated as IC50 [nM] (“-”=not measured).

Row | Structure (SMILES) | IC50 [1] [nM] | IC50 [2] [nM] | IC50 [3] [nM] | IC50 [4] [nM] | IC50 [5] [nM] | IC50 [6] [nM]
1 | Cc1ccc2cc1CNC(=O)[C@H](CCc1ccccc1)NC(=O)[C@@H](NC(=O)C13CC(F)(C1)C3)CC(=O)N1CCCC(CCO2)C1 (stereo partly drawn) [Compound 633, 3-fluoro-N-((9S,12S)-5^4-methyl-8,11,14-trioxo-9-phenethyl-4-oxa-7,10-diaza-1(3,1)-piperidina-5(1,3)-benzenacyclotetradecaphane-12-yl)bicyclo[1.1.1]pentane-1-carboxamide] | < 100 | < 100 | < 100 | < 100 | < 100 | < 100
2 | Cc1ccc2cc1CNC(=O)[C@H](CCc1ccccc1)NC(=O)[C@@H](NC(=O)CCNC(=O)c1cccc(OCC(C)C)c1)CC(=O)N1CCCC(CCO2)C1 (stereo partly drawn) [Compound 651, 3-isobutoxy-N-(3-(((9S,12S)-5^4-methyl-8,11,14-trioxo-9-phenethyl-4-oxa-7,10-diaza-1(3,1)-piperidina-5(1,3)-benzenacyclotetradecaphane-12-yl)amino)-3-oxopropyl)benzamide] | < 100 | < 100 | < 100 | < 100 | < 100 | < 100
3 | Cc1ccc2cc1CNC(=O)[C@H](CCc1ccccc1)NC(=O)[C@@H](NC(=O)CCOC1CC3(CNC3)C1)CC(=O)N1CCCC(CCO2)C1 (stereo partly drawn) [Compound 725, 3-((2-azaspiro[3.3]heptan-6-yl)oxy)-N-((9S,12S)-5^4-methyl-8,11,14-trioxo-9-phenethyl-4-oxa-7,10-diaza-1(3,1)-piperidina-5(1,3)-benzenacyclotetradecaphane-12-yl)propanamide] | 100 to 500 | 100 to 500 | 100 to 500 | < 100 | < 100 | < 100
4 | Cc1ccc2cc1CNC(=O)[C@H](CCc1ccccc1)NC(=O)[C@@H](NC(=O)CCNC1CCC1)CC(=O)N1CCCC(CCO2)C1 (stereo partly drawn) [Compound 680, 3-(cyclobutylamino)-N-((9S,12S)-5^4-methyl-8,11,14-trioxo-9-phenethyl-4-oxa-7,10-diaza-1(3,1)-piperidina-5(1,3)-benzenacyclotetradecaphane-12-yl)propanamide] | < 100 | < 100 | < 100 | < 100 | < 100 | < 100
5 | Cc1ccc2cc1CNC(=O)[C@H](CCc1ccccc1)NC(=O)[C@@H](NC(=O)CCNS(=O)(=O)c1ccc(OCC3CCCCC3)cc1)CC(=O)N1CCCC(CCO2)C1 (stereo partly drawn) [Compound 672, 3-((4-(cyclohexylmethoxy)phenyl)sulfonamido)-N-((9S,12S)-5^4-methyl-8,11,14-trioxo-9-phenethyl-4-oxa-7,10-diaza-1(3,1)-piperidina-5(1,3)-benzenacyclotetradecaphane-12-yl)propanamide] | < 100 | < 100 | < 100 | < 100 | < 100 | < 100
6 | Cc1ccc2cc1CNC(=O)[C@H](CCc1ccccc1)NC(=O)[C@@H](NC1CC3CCC1C3)CC(=O)N1CCCC(CCO2)C1 (stereo partly drawn) [Compound 712, (9S,12S)-12-(bicyclo[2.2.1]heptan-2-ylamino)-5^4-methyl-9-phenethyl-4-oxa-7,10-diaza-1(3,1)-piperidina-5(1,3)-benzenacyclotetradecaphane-8,11,14-trione] | < 100 | 100 to 500 | < 100 | < 100 | < 100 | < 100
7 | Cc1ccc2cc1CNC(=O)[C@H](CCc1ccccc1)NC(=O)[C@@H](NC(=O)C1CC3CCC(C1)N3C)CC(=O)N1CCCC(CCO2)C1 (stereo partly drawn) [Compound 713, 8-methyl-N-((9S,12S)-5^4-methyl-8,11,14-trioxo-9-phenethyl-4-oxa-7,10-diaza-1(3,1)-piperidina-5(1,3)-benzenacyclotetradecaphane-12-yl)-8-azabicyclo[3.2.1]octane-3-carboxamide] | < 100 | 100 to 500 | < 100 | < 100 | < 100 | < 100
8 | Cc1ccc2cc1CNC(=O)[C@H](CCc1ccccc1)NC(=O)[C@@H](NC(=O)N1CC(C)(O)C1)CC(=O)N1CCCC(CCO2)C1 (stereo partly drawn) [Compound 669, 3-hydroxy-3-methyl-N-((9S,12S)-5^4-methyl-8,11,14-trioxo-9-phenethyl-4-oxa-7,10-diaza-1(3,1)-piperidina-5(1,3)-benzenacyclotetradecaphane-12-yl)azetidine-1-carboxamide] | < 100 | < 100 | < 100 | < 100 | < 100 | < 100
9 | COc1ccc(OCCC(=O)N[C@H]2CC(=O)N3CCCC(CCOc4ccc(C)c(c4)CNC(=O)[C@H](CCc4ccccc4)NC2=O)C3)cc1 (stereo partly drawn) [Compound 622, 3-(4-methoxyphenoxy)-N-((9S,12S)-5^4-methyl-8,11,14-trioxo-9-phenethyl-4-oxa-7,10-diaza-1(3,1)-piperidina-5(1,3)-benzenacyclotetradecaphane-12-yl)propanamide] | < 100 | < 100 | < 100 | < 100 | < 100 | < 100
10 | Cc1ccc2cc1CNC(=O)[C@H](CCc1ccccc1)NC(=O)[C@@H](NC(=O)C1CC3(C1)CN(C(=O)OC(C)(C)C)C3)CC(=O)N1CCCC(CCO2)C1 (stereo partly drawn) [Compound 580, tert-butyl 6-(((9S,12S)-5^4-methyl-8,11,14-trioxo-9-phenethyl-4-oxa-7,10-diaza-1(3,1)-piperidina-5(1,3)-benzenacyclotetradecaphane-12-yl)carbamoyl)-2-azaspiro[3.3]heptane-2-carboxylate] | < 100 | < 100 | < 100 | < 100 | < 100 | < 100
11 | Cc1ccc2cc1CNC(=O)[C@H](CCc1ccccc1)NC(=O)[C@@H](NC(=O)[C@@H](N)CCC(=O)O)CC(=O)N1CCCC(CCO2)C1 (stereo partly drawn) [Compound 724, (4S)-4-amino-5-(((9S,12S)-5^4-methyl-8,11,14-trioxo-9-phenethyl-4-oxa-7,10-diaza-1(3,1)-piperidina-5(1,3)-benzenacyclotetradecaphane-12-yl)amino)-5-oxopentanoic acid] | 100 to 500 | 500 to 1000 | 100 to 500 | < 100 | < 100 | < 100
12 | Cc1ccc2cc1CNC(=O)[C@H](CCc1ccccc1)NC(=O)[C@@H](NC(=O)C(F)(F)CN)CC(=O)N1CCCC(CCO2)C1 (stereo partly drawn) [Compound 598, 3-amino-2,2-difluoro-N-((9S,12S)-5^4-methyl-8,11,14-trioxo-9-phenethyl-4-oxa-7,10-diaza-1(3,1)-piperidina-5(1,3)-benzenacyclotetradecaphane-12-yl)propanamide] | < 100 | < 100 | < 100 | < 100 | < 100 | < 100
13 | O=C(Cc1ccccc1)N[C@H]1CC(=O)N2CCCC(CCOc3ccc(F)c(c3)CNC(=O)[C@H](CCc3ccccc3)NC1=O)C2 (stereo partly drawn) [Compound 661, N-((9S,12S)-5^4-fluoro-8,11,14-trioxo-9-phenethyl-4-oxa-7,10-diaza-1(3,1)-piperidina-5(1,3)-benzenacyclotetradecaphane-12-yl)-2-phenylacetamide] | < 100 | < 100 | < 100 | < 100 | < 100 | < 100
14 | Cc1ccc2cc1CNC(=O)[C@H](CCc1ccccc1)NC(=O)[C@@H](NC(=O)CCN1CCC3(CCCC3)CC1)CC(=O)N1CCCC(CCO2)C1 (stereo partly drawn) [Compound 613, N-((9S,12S)-5^4-methyl-8,11,14-trioxo-9-phenethyl-4-oxa-7,10-diaza-1(3,1)-piperidina-5(1,3)-benzenacyclotetradecaphane-12-yl)-3-(8-azaspiro[4.5]decan-8-yl)propanamide] | < 100 | < 100 | < 100 | < 100 | < 100 | < 100
15 | Cc1ccc2cc1CNC(=O)[C@H](CCc1ccccc1)NC(=O)[C@@H](NC(=O)C1CC3CCC(C1)N3)CC(=O)N1CCCC(CCO2)C1 (stereo partly drawn) [Compound 723, N-((9S,12S)-5^4-methyl-8,11,14-trioxo-9-phenethyl-4-oxa-7,10-diaza-1(3,1)-piperidina-5(1,3)-benzenacyclotetradecaphane-12-yl)-8-azabicyclo[3.2]octane-3-carboxamide] | 100 to 500 | 100 to 500 | 100 to 500 | < 100 | < 100 | < 100
